# Measurements taken from PubChem BioAssay (NCI).
#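 Method: 48-hour compound exposure of cells in 96-well plates, five concentrations, linear interpolation of endpoints. GI50 marks 50% less growth. TGI denotes the concentration required for complete inhibition of growth.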
# Test system: EKVX NSCLC
# Experiment: growth of human tumour cells (NCI), 48 h
SMILES,GI50 [µM],TGI [µM]
COc1cc2c3c(n(CCNCCCNCCn4c5c(c6cc(OC)c(OC)cc6c4=O)C(=O)c4ccccc4-5)c(=O)c2cc1OC)-c1ccccc1C3=O,5.89,47.2
COc1cc(/C=C2\CN(C)CC3=C2NC(=S)NC3c2cc(OC)c(OC)c(OC)c2)cc(OC)c1OC (stereo not drawn),–,> 100
CC(C)(C)[Si](C)(C)OCC1OC(n2cc(I)c(N)nc2=O)C(O[Si](C)(C)C(C)(C)C)C1O[Si](C)(C)C(C)(C)C (stereo not drawn),–,38.4
Cc1ccc2c3c(c(=O)[nH]c2c1)C1(C(C#N)=C(N)O3)c2cc(Br)ccc2-c2ccc(Br)cc21,1.74,3.82

# Test system: HL-60(TB) leukemia
# Experiment: growth of human tumour cells (NCI), 48 h
SMILES,TGI [µM],GI50 [µM]
CCOC(=O)C1(C(=O)OCC)C[C@H](C)[C@](C)(O)C1,> 100,–
COc1cc2c3c(n(CCNCCCNCCn4c5c(c6cc(OC)c(OC)cc6c4=O)C(=O)c4ccccc4-5)c(=O)c2cc1OC)-c1ccccc1C3=O,0.334,< 0.0154
COc1cc(O)c2c(c1)OCC(Cc1ccc(O)cc1)C2=O (stereo not drawn),> 100,–
Cc1ccc2c3c(c(=O)[nH]c2c1)C1(C(C#N)=C(N)O3)c2cc(Br)ccc2-c2ccc(Br)cc21,66.7,18.8

# Test system: SK-MEL-28 melanoma
# Experiment: growth of human tumour cells (NCI), 48 h
SMILES,TGI [µM],GI50 [µM]
CCOC(=O)C1(C(=O)OCC)C[C@H](C)[C@](C)(O)C1,> 100,–
COc1cc2c3c(n(CCNCCCNCCn4c5c(c6cc(OC)c(OC)cc6c4=O)C(=O)c4ccccc4-5)c(=O)c2cc1OC)-c1ccccc1C3=O,5.07,1.78
COc1cc(O)c2c(c1)OCC(Cc1ccc(O)cc1)C2=O (stereo not drawn),> 100,–
Cc1ccc2c3c(c(=O)[nH]c2c1)C1(C(C#N)=C(N)O3)c2cc(Br)ccc2-c2ccc(Br)cc21,13.4,3.48

# Test system: MDA-MB-435
# Experiment: growth of human tumour cells (NCI), 48 h
SMILES,TGI [µM],GI50 [µM]
CCOC(=O)C1(C(=O)OCC)C[C@H](C)[C@](C)(O)C1,> 100,–
COc1cc2c3c(n(CCNCCCNCCn4c5c(c6cc(OC)c(OC)cc6c4=O)C(=O)c4ccccc4-5)c(=O)c2cc1OC)-c1ccccc1C3=O,2.55,1.02
COc1cc(O)c2c(c1)OCC(Cc1ccc(O)cc1)C2=O (stereo not drawn),> 100,–
Cc1ccc2c3c(c(=O)[nH]c2c1)C1(C(C#N)=C(N)O3)c2cc(Br)ccc2-c2ccc(Br)cc21,4.7,2.05

# Test system: MDA-N
# Experiment: growth of human tumour cells (NCI), 48 h
row,SMILES,TGI [µM]
1,CCOC(=O)C1(C(=O)OCC)C[C@H](C)[C@](C)(O)C1,> 100
2,COc1cc(/C=C2\CN(C)CC3=C2NC(=S)NC3c2cc(OC)c(OC)c(OC)c2)cc(OC)c1OC (stereo not drawn),> 100
3,CC(C)(C)[Si](C)(C)OCC1OC(n2cc(I)c(N)nc2=O)C(O[Si](C)(C)C(C)(C)C)C1O[Si](C)(C)C(C)(C)C (stereo not drawn),26.9
4,COc1cc(O)c2c(c1)OCC(Cc1ccc(O)cc1)C2=O (stereo not drawn),> 100

# Test system: SN12C renal
# Experiment: growth of human tumour cells (NCI), 48 h
SMILES,TGI [µM],GI50 [µM]
CCOC(=O)C1(C(=O)OCC)C[C@H](C)[C@](C)(O)C1,> 100,–
COc1cc2c3c(n(CCNCCCNCCn4c5c(c6cc(OC)c(OC)cc6c4=O)C(=O)c4ccccc4-5)c(=O)c2cc1OC)-c1ccccc1C3=O,1.59,< 0.0166
COc1cc(/C=C2\CN(C)CC3=C2NC(=S)NC3c2cc(OC)c(OC)c(OC)c2)cc(OC)c1OC (stereo not drawn),> 100,–
CC(C)(C)[Si](C)(C)OCC1OC(n2cc(I)c(N)nc2=O)C(O[Si](C)(C)C(C)(C)C)C1O[Si](C)(C)C(C)(C)C (stereo not drawn),26.6,–
COc1cc(O)c2c(c1)OCC(Cc1ccc(O)cc1)C2=O (stereo not drawn),> 100,–
Cc1ccc2c3c(c(=O)[nH]c2c1)C1(C(C#N)=C(N)O3)c2cc(Br)ccc2-c2ccc(Br)cc21,4.03,1.92

# Test system: OVCAR-3 ovarian
# Experiment: growth of human tumour cells (NCI), 48 h
SMILES,TGI [µM],GI50 [µM]
CCOC(=O)C1(C(=O)OCC)C[C@H](C)[C@](C)(O)C1,> 100,–
COc1cc2c3c(n(CCNCCCNCCn4c5c(c6cc(OC)c(OC)cc6c4=O)C(=O)c4ccccc4-5)c(=O)c2cc1OC)-c1ccccc1C3=O,1.17,0.149
COc1cc(/C=C2\CN(C)CC3=C2NC(=S)NC3c2cc(OC)c(OC)c(OC)c2)cc(OC)c1OC (stereo not drawn),> 100,–
CC(C)(C)[Si](C)(C)OCC1OC(n2cc(I)c(N)nc2=O)C(O[Si](C)(C)C(C)(C)C)C1O[Si](C)(C)C(C)(C)C (stereo not drawn),24,–
COc1cc(O)c2c(c1)OCC(Cc1ccc(O)cc1)C2=O (stereo not drawn),> 100,–
Cc1ccc2c3c(c(=O)[nH]c2c1)C1(C(C#N)=C(N)O3)c2cc(Br)ccc2-c2ccc(Br)cc21,4.76,2.11

# Test system: NCI/ADR-RES ovarian
# Experiment: growth of human tumour cells (NCI), 48 h
SMILES,TGI [µM],GI50 [µM]
CCOC(=O)C1(C(=O)OCC)C[C@H](C)[C@](C)(O)C1,> 100,–
COc1cc2c3c(n(CCNCCCNCCn4c5c(c6cc(OC)c(OC)cc6c4=O)C(=O)c4ccccc4-5)c(=O)c2cc1OC)-c1ccccc1C3=O,> 100,> 100
COc1cc(/C=C2\CN(C)CC3=C2NC(=S)NC3c2cc(OC)c(OC)c(OC)c2)cc(OC)c1OC (stereo not drawn),> 100,–
CC(C)(C)[Si](C)(C)OCC1OC(n2cc(I)c(N)nc2=O)C(O[Si](C)(C)C(C)(C)C)C1O[Si](C)(C)C(C)(C)C (stereo not drawn),> 100,–
COc1cc(O)c2c(c1)OCC(Cc1ccc(O)cc1)C2=O (stereo not drawn),> 100,–
Cc1ccc2c3c(c(=O)[nH]c2c1)C1(C(C#N)=C(N)O3)c2cc(Br)ccc2-c2ccc(Br)cc21,> 100,6.82

# Test system: U251 CNS
# Experiment: growth of human tumour cells (NCI), 48 h
SMILES,TGI [µM],GI50 [µM]
CCOC(=O)C1(C(=O)OCC)C[C@H](C)[C@](C)(O)C1,> 100,–
COc1cc2c3c(n(CCNCCCNCCn4c5c(c6cc(OC)c(OC)cc6c4=O)C(=O)c4ccccc4-5)c(=O)c2cc1OC)-c1ccccc1C3=O,1.49,0.0733
COc1cc(O)c2c(c1)OCC(Cc1ccc(O)cc1)C2=O (stereo not drawn),> 100,–
Cc1ccc2c3c(c(=O)[nH]c2c1)C1(C(C#N)=C(N)O3)c2cc(Br)ccc2-c2ccc(Br)cc21,3.5,1.81

# Test system: UACC-257 melanoma
# Experiment: growth of human tumour cells (NCI), 48 h
SMILES,TGI [µM],GI50 [µM]
CCOC(=O)C1(C(=O)OCC)C[C@H](C)[C@](C)(O)C1,> 100,–
COc1cc2c3c(n(CCNCCCNCCn4c5c(c6cc(OC)c(OC)cc6c4=O)C(=O)c4ccccc4-5)c(=O)c2cc1OC)-c1ccccc1C3=O,> 100,73.3
COc1cc(/C=C2\CN(C)CC3=C2NC(=S)NC3c2cc(OC)c(OC)c(OC)c2)cc(OC)c1OC (stereo not drawn),> 100,–
CC(C)(C)[Si](C)(C)OCC1OC(n2cc(I)c(N)nc2=O)C(O[Si](C)(C)C(C)(C)C)C1O[Si](C)(C)C(C)(C)C (stereo not drawn),26.7,–
COc1cc(O)c2c(c1)OCC(Cc1ccc(O)cc1)C2=O (stereo not drawn),> 100,–
Cc1ccc2c3c(c(=O)[nH]c2c1)C1(C(C#N)=C(N)O3)c2cc(Br)ccc2-c2ccc(Br)cc21,5.24,2.32

# Test system: SNB-75 CNS
# Experiment: growth of human tumour cells (NCI), 48 h
SMILES,TGI [µM],GI50 [µM]
CCOC(=O)C1(C(=O)OCC)C[C@H](C)[C@](C)(O)C1,> 100,–
COc1cc2c3c(n(CCNCCCNCCn4c5c(c6cc(OC)c(OC)cc6c4=O)C(=O)c4ccccc4-5)c(=O)c2cc1OC)-c1ccccc1C3=O,6.81,1.6
COc1cc(/C=C2\CN(C)CC3=C2NC(=S)NC3c2cc(OC)c(OC)c(OC)c2)cc(OC)c1OC (stereo not drawn),> 100,–
CC(C)(C)[Si](C)(C)OCC1OC(n2cc(I)c(N)nc2=O)C(O[Si](C)(C)C(C)(C)C)C1O[Si](C)(C)C(C)(C)C (stereo not drawn),28,–
COc1cc(O)c2c(c1)OCC(Cc1ccc(O)cc1)C2=O (stereo not drawn),> 100,–
Cc1ccc2c3c(c(=O)[nH]c2c1)C1(C(C#N)=C(N)O3)c2cc(Br)ccc2-c2ccc(Br)cc21,3.16,1.51

# Test system: SF-268 CNS
# Experiment: growth of human tumour cells (NCI), 48 h
SMILES,TGI [µM],GI50 [µM]
CCOC(=O)C1(C(=O)OCC)C[C@H](C)[C@](C)(O)C1,> 100,–
COc1cc2c3c(n(CCNCCCNCCn4c5c(c6cc(OC)c(OC)cc6c4=O)C(=O)c4ccccc4-5)c(=O)c2cc1OC)-c1ccccc1C3=O,–,0.0648
COc1cc(/C=C2\CN(C)CC3=C2NC(=S)NC3c2cc(OC)c(OC)c(OC)c2)cc(OC)c1OC (stereo not drawn),> 100,–
CC(C)(C)[Si](C)(C)OCC1OC(n2cc(I)c(N)nc2=O)C(O[Si](C)(C)C(C)(C)C)C1O[Si](C)(C)C(C)(C)C (stereo not drawn),28.8,–
COc1cc(O)c2c(c1)OCC(Cc1ccc(O)cc1)C2=O (stereo not drawn),> 100,–
Cc1ccc2c3c(c(=O)[nH]c2c1)C1(C(C#N)=C(N)O3)c2cc(Br)ccc2-c2ccc(Br)cc21,5.08,2.03

# Test system: CCRF-CEM leukemia
# Experiment: growth of human tumour cells (NCI), 48 h
SMILES,TGI [µM],GI50 [µM]
CCOC(=O)C1(C(=O)OCC)C[C@H](C)[C@](C)(O)C1,> 100,–
COc1cc2c3c(n(CCNCCCNCCn4c5c(c6cc(OC)c(OC)cc6c4=O)C(=O)c4ccccc4-5)c(=O)c2cc1OC)-c1ccccc1C3=O,1.63,< 0.0174
COc1cc(O)c2c(c1)OCC(Cc1ccc(O)cc1)C2=O (stereo not drawn),> 100,–
Cc1ccc2c3c(c(=O)[nH]c2c1)C1(C(C#N)=C(N)O3)c2cc(Br)ccc2-c2ccc(Br)cc21,15,3.12

# Test system: K-562 leukemia
# Experiment: growth of human tumour cells (NCI), 48 h
SMILES,TGI [µM],GI50 [µM]
CCOC(=O)C1(C(=O)OCC)C[C@H](C)[C@](C)(O)C1,> 100,–
COc1cc2c3c(n(CCNCCCNCCn4c5c(c6cc(OC)c(OC)cc6c4=O)C(=O)c4ccccc4-5)c(=O)c2cc1OC)-c1ccccc1C3=O,1.48,0.103
COc1cc(O)c2c(c1)OCC(Cc1ccc(O)cc1)C2=O (stereo not drawn),> 100,–
Cc1ccc2c3c(c(=O)[nH]c2c1)C1(C(C#N)=C(N)O3)c2cc(Br)ccc2-c2ccc(Br)cc21,12.6,2.96

# Test system: T-47D breast
# Experiment: growth of human tumour cells (NCI), 48 h
SMILES,GI50 [µM],TGI [µM]
COc1cc2c3c(n(CCNCCCNCCn4c5c(c6cc(OC)c(OC)cc6c4=O)C(=O)c4ccccc4-5)c(=O)c2cc1OC)-c1ccccc1C3=O,2.32,> 34.7
COc1cc(/C=C2\CN(C)CC3=C2NC(=S)NC3c2cc(OC)c(OC)c(OC)c2)cc(OC)c1OC (stereo not drawn),–,> 100
COc1cc(O)c2c(c1)OCC(Cc1ccc(O)cc1)C2=O (stereo not drawn),–,> 100
Cc1ccc2c3c(c(=O)[nH]c2c1)C1(C(C#N)=C(N)O3)c2cc(Br)ccc2-c2ccc(Br)cc21,1.68,3.78

# Test system: M14 melanoma
# Experiment: growth of human tumour cells (NCI), 48 h
SMILES,TGI [µM],GI50 [µM]
CCOC(=O)C1(C(=O)OCC)C[C@H](C)[C@](C)(O)C1,> 100,–
COc1cc2c3c(n(CCNCCCNCCn4c5c(c6cc(OC)c(OC)cc6c4=O)C(=O)c4ccccc4-5)c(=O)c2cc1OC)-c1ccccc1C3=O,6.52,1.38
COc1cc(/C=C2\CN(C)CC3=C2NC(=S)NC3c2cc(OC)c(OC)c(OC)c2)cc(OC)c1OC (stereo not drawn),> 100,–
